Reference: patent US11071731B2, “Allosteric modulators of the mu opioid receptor” (Chiromics, LLC, priority 2017, dated 2021)

Tests used:
[1] = biological target: T1, mu opioid receptor (MOR) (Homo sapiens, UniProt P35372); test: PathHunter β-arrestin recruitment assay, PAM mode with EC20 endomorphin-1; assay type: cell-based; conditions: for allosteric activity for β-arrestin recruitment: EC20 endomorphin-1 concentration of 4.5 nM
How it was run: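 Enzyme fragment complementation read-out: β-gal ED fragment fused to receptor, EA fused to β-arrestin, recruitment restoring β-gal activity detected by chemiluminescence. EC50 and percent maximal response derived for each compound.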

[2] = biological target: T1, mu opioid receptor (MOR); test: Hit Hunter cAMP signaling assay (adenylyl cyclase inhibition), PAM mode with EC20 endomorphin-1; assay type: cell-based; conditions: for allosteric activity for cAMP signaling: EC20 endomorphin-1 concentration of 0.45 nM
[3] = maximal response for β-arrestin recruitment
[4] = β-arrestin recruitment, read-out: β-arr. EC50
[5] = cAMP EC50, adenylyl cyclase inhibition
[6] = maximal response for adenylyl cyclase inhibition
[7] = adenylyl cyclase inhibition, read-out: cAMP EC50

T1 sequence (P35372 whole entry, the tested form may be a part): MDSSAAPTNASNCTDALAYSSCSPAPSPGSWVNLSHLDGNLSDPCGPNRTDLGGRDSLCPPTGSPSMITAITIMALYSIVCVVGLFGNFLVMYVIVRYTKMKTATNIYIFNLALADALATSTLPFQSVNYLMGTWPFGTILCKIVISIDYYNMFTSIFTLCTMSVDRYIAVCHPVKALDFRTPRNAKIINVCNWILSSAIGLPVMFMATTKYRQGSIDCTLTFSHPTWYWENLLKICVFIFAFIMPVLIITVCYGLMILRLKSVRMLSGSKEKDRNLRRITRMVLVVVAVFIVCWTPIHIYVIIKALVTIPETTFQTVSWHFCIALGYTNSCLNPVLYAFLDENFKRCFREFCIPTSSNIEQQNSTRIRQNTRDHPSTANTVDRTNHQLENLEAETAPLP

[2H]C1(c2cccc(C(F)(F)F)c2)C(F)CCCN1c1nc(Cl)ncc1F (centres unmarked) [compound 207]
β-arr Max. Resp. [1, 3]: F (F represents a maximal response of > 60%) | β-arr. Max Resp. ([1]; maximal response for β-arrestin recruitment, Table 3): 116 | EC50 ([1]; β-arrestin recruitment, Table 3, read-out: β-arr. EC50): 1.17 µM | EC50 [1, 4]: 0.7 to 2.1 µM | EC50 ([2]; cAMP EC50 (nM), adenylyl cyclase inhibition, Table 3): 969 nM | EC50 [2, 5]: 700 to 2100 nM | cAMP Max. Resp. [2, 6]: D (D represents a maximal response of < 40%) | cAMP Max Resp. ([2]; maximal response for adenylyl cyclase inhibition, Table 3): 34

Fc1ccc(C2C(F)CCCN2c2nc(Cl)ncc2F)cc1Br (centres unmarked) [compound 210]
β-arr Max. Resp. [1, 3]: F (F represents a maximal response of > 60%) | EC50 [1, 4]: > 2.1 µM | EC50 [2, 5]: 700 to 2100 nM | cAMP Max. Resp. [2, 6]: E (E represents a maximal response of 40-60%)

Fc1ccc(C2C(F)CCCN2c2nc(Cl)ncc2F)cc1Br (centres unmarked) [compound 211]
β-arr Max. Resp. [1, 3]: F (F represents a maximal response of > 60%) | EC50 [1, 4]: > 2.1 µM | EC50 [2, 5]: > 2100 nM | cAMP Max. Resp. [2, 6]: E (E represents a maximal response of 40-60%)

COc1ccc(C2C(F)CCCN2c2nc(Cl)ncc2F)cc1Br (centres unmarked) [compound 212]
β-arr Max. Resp. [1, 3]: F (F represents a maximal response of > 60%) | EC50 [1, 4]: > 2.1 µM | EC50 [2, 5]: > 2100 nM | cAMP Max. Resp. [2, 6]: E (E represents a maximal response of 40-60%)

COc1ccc(C2C(F)CCCN2c2nc(Cl)ncc2F)cc1Br (centres unmarked) [compound 213]
β-arr Max. Resp. [1, 3]: F (F represents a maximal response of > 60%) | EC50 [1, 4]: > 2.1 µM | cAMP Max. Resp. [2, 6]: D (D represents a maximal response of < 40%) | EC50 ([2]; read-out: cAMP EC50, adenylyl cyclase inhibition): > 2100 nM

Fc1ccc(C2C(F)CCCN2c2nc(Cl)ncc2F)cc1Br (centres unmarked) [compound 214]
EC50 [1, 4]: > 2.1 µM | EC50 [2, 7]: 700 to 2100 nM

[2H]C1(c2ccc(F)c(Br)c2)C(F)CCCN1c1nc(Cl)ncc1F (centres unmarked) [compound 214]
β-arr Max. Resp. [1, 3]: F (F represents a maximal response of > 60%) | cAMP Max. Resp. [2, 6]: E (E represents a maximal response of 40-60%)

COc1ccc(C2CCCCN2c2cc(F)cc(Cl)n2)cc1Br (centres unmarked) [compound 215]
β-arr Max. Resp. [1, 3]: F (F represents a maximal response of > 60%) | EC50 [1, 4]: 0.7 to 2.1 µM | EC50 [2, 5]: > 2100 nM | cAMP Max. Resp. [2, 6]: D (D represents a maximal response of < 40%)

Fc1cc(C2C3CCC(C3)N2Cc2cc(Cl)ccc2F)cc(C(F)(F)F)c1 (centres unmarked) [compound 216]
allosteric activity for β-arrestin recruitment [1]: high positive allosteric activity | allosteric activity for β-arrestin recruitment ([1]; listed as Compound No. 216): high allosteric modulatory capability | β-arr Max. Resp. [1, 3]: F (F represents a maximal response of > 60%) | EC50 [1, 4]: < 0.7 µM | allosteric activity for cAMP signaling [2]: silent allosteric activity | EC50 [2, 5]: > 2100 nM | cAMP Max. Resp. [2, 6]: D (D represents a maximal response of < 40%)

Fc1ccc(C2C3CCC(C3)N2Cc2cc(Cl)ccc2F)cc1Cl (centres unmarked) [compound 217]
β-arr Max. Resp. [1, 3]: F (F represents a maximal response of > 60%) | EC50 ([1]; β-arr. EC50, β-arrestin recruitment): 0.7 to 2.1 µM | EC50 [2]: > 2100 nM | cAMP Max. Resp. [2, 6]: D (D represents a maximal response of < 40%)

N#Cc1cccc(N2CCCCC2c2ccc(F)c(Cl)c2)c1 (centres unmarked) [compound 218]
β-arr Max. Resp. [1, 3]: E (E represents a maximal response of 40-60%) | EC50 [1, 4]: 0.7 to 2.1 µM | EC50 [2, 7]: > 2100 nM | cAMP Max. Resp. [2, 6]: D (D represents a maximal response of < 40%)

COc1ccc(C2C(F)CCCN2S(=O)(=O)c2ccc(Cl)cc2)cc1Br (centres unmarked) [compound 219]
allosteric activity for β-arrestin recruitment [1]: low positive allosteric activity | signaling preference β-arrestin vs cAMP ([1]; comparison of β-arrestin and cAMP assays): preferential signaling via cAMP over β-arrestin | β-arr Max. Resp. [1, 3]: F (F represents a maximal response of > 60%) | EC50 [1, 4]: 0.7 to 2.1 µM | allosteric activity for cAMP signaling [2]: high positive allosteric activity | EC50 [2, 5]: < 700 nM | cAMP Max. Resp. [2, 6]: F (F represents a maximal response of > 60%)

COc1ncc(F)c(N2CCCCC2c2ccc(OC)c(Br)c2)n1 (centres unmarked) [compound 225]
β-arr Max. Resp. [1, 3]: F (F represents a maximal response of > 60%) | EC50 [1, 4]: > 2.1 µM | EC50 [2, 5]: > 2100 nM | cAMP Max. Resp. [2, 6]: F (F represents a maximal response of > 60%)

COc1ccc(C2CCCCN2c2ccnc(Cl)n2)cc1Br (centres unmarked) [compound 226]
β-arr Max. Resp. [1, 3]: F (F represents a maximal response of > 60%) | EC50 [1, 4]: > 2.1 µM | EC50 [2, 5]: > 2100 nM | cAMP Max. Resp. [2, 6]: F (F represents a maximal response of > 60%)

COc1ccc(C2CCCCN2c2cccc(C(F)(F)F)n2)cc1Br (centres unmarked) [compound 227]
β-arr Max. Resp. [1, 3]: F (F represents a maximal response of > 60%) | EC50 [1, 4]: > 2.1 µM | EC50 [2, 5]: > 2100 nM | cAMP Max. Resp. [2, 6]: F (F represents a maximal response of > 60%)

COc1ccc(C2CCCCN2c2ncnc(Cl)c2F)cc1Br (centres unmarked) [compound 228]
β-arr Max. Resp. [1, 3]: F (F represents a maximal response of > 60%) | EC50 [1, 4]: > 2.1 µM | EC50 [2, 5]: > 2100 nM | cAMP Max. Resp. [2, 6]: F (F represents a maximal response of > 60%)

COc1ccc(C2CCCCN2c2cncc(Cl)n2)cc1Br (centres unmarked) [compound 229]
β-arr Max. Resp. [1, 3]: F (F represents a maximal response of > 60%) | EC50 [1, 4]: > 2.1 µM | EC50 [2, 5]: > 2100 nM | cAMP Max. Resp. [2, 6]: F (F represents a maximal response of > 60%)

COc1ccc(C2CCCCN2c2cncc(C(F)(F)F)n2)cc1Br (centres unmarked) [compound 230]
β-arr Max. Resp. [1, 3]: F (F represents a maximal response of > 60%) | EC50 [1, 4]: > 2.1 µM | EC50 [2, 5]: > 2100 nM | cAMP Max. Resp. [2, 6]: F (F represents a maximal response of > 60%)

COc1ccc(C2CCCCN2c2ccc(Br)cn2)cc1Br (centres unmarked) [compound 231]
β-arr Max. Resp. [1, 3]: E (E represents a maximal response of 40-60%) | EC50 [1, 4]: > 2.1 µM | EC50 [2, 5]: > 2100 nM | cAMP Max. Resp. [2, 6]: E (E represents a maximal response of 40-60%)

COc1ccc(C2CCCCN2c2ccc(C(F)(F)F)cn2)cc1Br (centres unmarked) [compound 232]
β-arr Max. Resp. [1, 3]: F (F represents a maximal response of > 60%) | EC50 [1, 4]: > 2.1 µM | EC50 [2, 5]: > 2100 nM | cAMP Max. Resp. [2, 6]: F (F represents a maximal response of > 60%)

COc1ccc(C2CCCCN2c2ncncc2F)cc1Br (centres unmarked) [compound 233]
β-arr Max. Resp. [1, 3]: F (F represents a maximal response of > 60%) | EC50 [1, 4]: > 2.1 µM | EC50 [2, 5]: > 2100 nM | cAMP Max. Resp. [2, 6]: F (F represents a maximal response of > 60%)

COc1ccc(C2CCCCN2c2nc(Cl)ncc2C)cc1Br (centres unmarked) [compound 234]
β-arr Max. Resp. [1, 3]: F (F represents a maximal response of > 60%) | EC50 [1, 4]: > 2.1 µM | EC50 [2, 5]: > 2100 nM | cAMP Max. Resp. [2, 6]: F (F represents a maximal response of > 60%)

COc1ccc(C2CCCCN2c2nc(Cl)ncc2OC)cc1Br (centres unmarked) [compound 235]
β-arr Max. Resp. [1, 3]: F (F represents a maximal response of > 60%) | EC50 [1, 4]: > 2.1 µM | EC50 [2, 5]: > 2100 nM | cAMP Max. Resp. [2, 6]: F (F represents a maximal response of > 60%)

COc1ccc(C2CCCCN2c2ncc(C)c(Cl)n2)cc1Br (centres unmarked) [compound 236]
β-arr Max. Resp. [1, 3]: F (F represents a maximal response of > 60%) | EC50 [1, 4]: > 2.1 µM | EC50 [2, 5]: > 2100 nM | cAMP Max. Resp. [2, 6]: F (F represents a maximal response of > 60%)

COc1ccc(C2CC(C)CN2c2nc(Cl)ncc2F)cc1Br (centres unmarked) [compound 237]
β-arr Max. Resp. [1, 3]: E (E represents a maximal response of 40-60%) | EC50 [1, 4]: > 2.1 µM | EC50 [2, 7]: > 2100 nM | cAMP Max. Resp. [2, 6]: D (D represents a maximal response of < 40%)

O=C1CCN(c2nc(Cl)ncc2F)C(c2cc(F)cc(C(F)(F)F)c2)C1 (centres unmarked) [compound 238]
β-arr Max. Resp. [1, 3]: E (E represents a maximal response of 40-60%) | EC50 [1, 4]: > 2.1 µM | EC50 [2, 5]: > 2100 nM | cAMP Max. Resp. [2, 6]: D (D represents a maximal response of < 40%)

O=C1CCN(c2nc(Cl)ncc2F)C(c2cccc(C(F)(F)F)c2)C1 (centres unmarked) [compound 239]
β-arr Max. Resp. [1, 3]: E (E represents a maximal response of 40-60%) | EC50 [1, 4]: > 2.1 µM | EC50 [2, 5]: > 2100 nM | cAMP Max. Resp. [2, 6]: D (D represents a maximal response of < 40%)

O=C1CCN(c2nc(Cl)ncc2F)C(c2ccc(F)c(Br)c2)C1 (centres unmarked) [compound 240]
β-arr Max. Resp. [1, 3]: D (D represents a maximal response of < 40%) | EC50 [1, 4]: > 2.1 µM | EC50 [2, 5]: > 2100 nM | cAMP Max. Resp. [2, 6]: E (E represents a maximal response of 40-60%)

OC1CCN(c2nc(Cl)ncc2F)C(c2ccc(F)c(Br)c2)C1 (centres unmarked) [compound 241]
β-arr Max. Resp. [1, 3]: F (F represents a maximal response of > 60%) | EC50 [1, 4]: > 2.1 µM | EC50 [2, 5]: > 2100 nM | cAMP Max. Resp. [2, 6]: E (E represents a maximal response of 40-60%)
